Results reported in ChEMBL document CHEMBL5120847, “Enceleamycins A-C, Furo-Naphthoquinones from Amycolatopsis sp. MCC0218: Isolation, Structure Elucidation, and Antimicrobial Activity” (2022).
Values after ≈ are worked out from the molar mass of the structure shown.

Legend:
Format in all cases: functional
Staphylococcus aureus [1] = assay: Antibacterial activity against methicillin-resistant Staphylococcus aureus clinical isolate 3B assessed as inhibition of visible bacterial growth incubated for 18 hrs by CLSI protocol based assay
Bacillus cereus = assay: Antibacterial activity against Bacillus cereus ATCC 11778 assessed as inhibition of visible bacterial growth incubated for 18 hrs by CLSI protocol based assay
Staphylococcus aureus [2] = assay: Antibacterial activity against methicillin-resistant Staphylococcus aureus clinical isolate 9B assessed as inhibition of visible bacterial growth incubated for 18 hrs by CLSI protocol based assay
Bacillus subtilis = assay: Antibacterial activity against Bacillus subtilis ATCC 6633 assessed as inhibition of visible bacterial growth incubated for 18 hrs by CLSI protocol based assay
[3] = tested on: Mycolicibacterium smegmatis; assay: Antibacterial activity against Mycobacterium smegmatis ATCC 607 assessed as inhibition of visible bacterial growth incubated for 48 hrs by CLSI protocol based assay
Micrococcus luteus = assay: Antibacterial activity against Micrococcus luteus ATCC 9341 assessed as inhibition of visible bacterial growth incubated for 18 hrs by CLSI protocol based assay
Staphylococcus aureus [4] = assay: Antibacterial activity against methicillin-resistant Staphylococcus aureus clinical isolate 6B assessed as inhibition of visible bacterial growth incubated for 18 hrs by CLSI protocol based assay
Escherichia coli = assay: Antibacterial activity against Escherichia coli ATCC 8739 assessed as inhibition of visible bacterial growth incubated for 18 hrs by CLSI protocol based assay
Staphylococcus aureus [5] = assay: Antibacterial activity against Staphylococcus aureus ATCC 9144 assessed as inhibition of visible bacterial growth incubated for 18 hrs by CLSI protocol based assay
Staphylococcus aureus [6] = assay: Antibacterial activity against methicillin-resistant Staphylococcus aureus clinical isolate 10B assessed as inhibition of visible bacterial growth incubated for 18 hrs by CLSI protocol based assay
Listeria monocytogenes = assay: Antibacterial activity against Listeria monocytogenes ATCC19111 assessed as inhibition of visible bacterial growth incubated for 18 hrs by CLSI protocol based assay
Pseudomonas aeruginosa = assay: Antibacterial activity against Pseudomonas aeruginosa ATCC 9027 assessed as inhibition of visible bacterial growth incubated for 18 hrs by CLSI protocol based assay
[7] = tested on: Staphylococcus epidermidis; assay: Antibacterial activity against Staphylococcus epidermidis ATCC 12228 assessed as inhibition of visible bacterial growth incubated for 18 hrs by CLSI protocol based assay

SMILES	MIC (Staphylococcus aureus [1])	MIC (Bacillus cereus)	MIC (Staphylococcus aureus [2])	MIC (Bacillus subtilis)	MIC [3]	MIC (Micrococcus luteus)	MIC (Staphylococcus aureus [4])	MIC (Escherichia coli)	MIC (Staphylococcus aureus [5])	MIC (Staphylococcus aureus [6])	MIC (Listeria monocytogenes)	MIC (Pseudomonas aeruginosa)	MIC [7]
CC(C)Cc1nc([C@H](C)C(=O)O)c(C(C)C)n(O)c1=O	128 µg/mL (≈ 453 µM)	128 µg/mL (≈ 453 µM)	128 µg/mL (≈ 453 µM)	128 µg/mL (≈ 453 µM)	> 128 µg/mL	64 µg/mL (≈ 227 µM)	128 µg/mL (≈ 453 µM)	> 128 µg/mL	128 µg/mL (≈ 453 µM)	128 µg/mL (≈ 453 µM)	128 µg/mL (≈ 453 µM)	> 128 µg/mL	64 µg/mL (≈ 227 µM)
C[C@H]1O[C@@H]2C3=C(O[C@]2(C)[C@@]1(O)C=O)C(=O)c1c(O)cccc1C3=O	16 µg/mL (≈ 48.4 µM)	16 µg/mL (≈ 48.4 µM)	16 µg/mL (≈ 48.4 µM)	16 µg/mL (≈ 48.4 µM)	64 µg/mL (≈ 194 µM)	32 µg/mL (≈ 96.9 µM)	8 µg/mL (≈ 24.2 µM)	> 128 µg/mL	8 µg/mL (≈ 24.2 µM)	8 µg/mL (≈ 24.2 µM)	8 µg/mL (≈ 24.2 µM)	> 128 µg/mL	8 µg/mL (≈ 24.2 µM)
NC[C@H]1O[C@H](O[C@H]2[C@H](O)[C@@H](O[C@H]3O[C@H](CO)[C@@H](O)[C@H](N)[C@H]3O)[C@H](N)C[C@@H]2N)[C@H](O)[C@@H](O)[C@@H]1O [KANAMYCIN]	> 128 µg/mL	2 µg/mL (≈ 4.13 µM)	128 µg/mL (≈ 264 µM)	0.5 µg/mL (≈ 1.03 µM)	0.25 µg/mL (≈ 0.516 µM)	8 µg/mL (≈ 16.5 µM)	> 128 µg/mL	8 µg/mL (≈ 16.5 µM)	8 µg/mL (≈ 16.5 µM)	> 128 µg/mL	1 µg/mL (≈ 2.06 µM)	8 µg/mL (≈ 16.5 µM)	1 µg/mL (≈ 2.06 µM)
CC1(C)S[C@@H]2[C@H](NC(=O)[C@H](N)c3ccccc3)C(=O)N2[C@H]1C(=O)O [AMPICILLIN]	8 µg/mL (≈ 22.9 µM)	16 µg/mL (≈ 45.8 µM)		0.03 µg/mL (≈ 0.0859 µM)	64 µg/mL (≈ 183 µM)	0.03 µg/mL (≈ 0.0859 µM)	8 µg/mL (≈ 22.9 µM)		0.03 µg/mL (≈ 0.0859 µM)	4 µg/mL (≈ 11.4 µM)	0.03 µg/mL (≈ 0.0859 µM)	2 µg/mL (≈ 5.72 µM)	1 µg/mL (≈ 2.86 µM)
C[C@H]1O[C@@H]2O[C@@H]3C4C(=O)c5cccc(O)c5C(=O)C4O[C@]3(C)[C@@]21O (stereo partly specified)	4 µg/mL (≈ 12 µM)	8 µg/mL (≈ 24.1 µM)	4 µg/mL (≈ 12 µM)	4 µg/mL (≈ 12 µM)	64 µg/mL (≈ 193 µM)	8 µg/mL (≈ 24.1 µM)	4 µg/mL (≈ 12 µM)	> 128 µg/mL	2 µg/mL (≈ 6.02 µM)	4 µg/mL (≈ 12 µM)	2 µg/mL (≈ 6.02 µM)	> 128 µg/mL	2 µg/mL (≈ 6.02 µM)
C[C@H]1O[C@]12[C@@H](O)O[C@H]1[C@]2(C)O[C@]2(O)C(=O)c3c(O)cccc3C(=O)[C@@]12O	> 128 µg/mL	> 128 µg/mL	> 128 µg/mL	> 128 µg/mL	> 128 µg/mL	> 128 µg/mL	> 128 µg/mL	> 128 µg/mL	128 µg/mL (≈ 351 µM)	128 µg/mL (≈ 351 µM)	128 µg/mL (≈ 351 µM)	> 128 µg/mL	64 µg/mL (≈ 176 µM)
